Laboratory results from ChEMBL document CHEMBL4477272, “Toward chelerythrine optimization: Analogues designed by molecular simplification exhibit selective growth inhibition in non-small-cell lung cancer cells” (Bioorg Med Chem, 2016).
Activity calls are given as the source filed them. No cut-off for these calls is given here.

How the values were obtained:
[1] = Selectivity index, ratio of IC50 for HUVEC to IC50 for human NCI-H1299 cells; type: toxicity; settings: HUVEC versus NCI-H1299 cells, read-out: Ratio IC50
[2] = Cytotoxicity against human LL24 cells assessed as reduction in cell viability after 24 hrs by MTT assay; type: cell-based; settings: LL24, 24 h
NCI-H1299 [3] = assay: Cytotoxicity against human NCI-H1299 cells assessed as reduction in cell viability after 24 hrs by MTT assay; type: functional, cell-based; settings: NCI-H1299, 24 h
[4] = Selectivity index, ratio of IC50 for human LL24 cells to IC50 for human NCI-H1299 cells
HUVEC = assay: Cytotoxicity against HUVEC assessed as reduction in cell viability after 24 hrs by MTT assay; type: cell-based; settings: Homo sapiens
A549 [5] = assay: Cytotoxicity against human A549 cells assessed as reduction in cell viability after 24 hrs by MTT assay; type: functional, cell-based; settings: A549, 24 h
NCI-H460 = assay: Cytotoxicity against human NCI-H460 cells assessed as reduction in cell viability after 24 hrs by MTT assay; type: functional, cell-based; settings: NCI-H460, 24 h
NCI-H292 = assay: Cytotoxicity against human NCI-H292 cells assessed as reduction in cell viability after 24 hrs by MTT assay; type: functional, cell-based; settings: NCI-H292, 24 h
[6] = Selectivity index, ratio of IC50 for human LL24 cells to IC50 for human NCI-H292 cells
[7] = Selectivity index, ratio of IC50 for HUVEC to IC50 for human NCI-H292 cells
[8] = Selectivity index, ratio of IC50 for HUVEC to IC50 for human A549 cells; type: toxicity; settings: HUVEC versus A549 cells, read-out: Ratio IC50
[9] = Selectivity index, ratio of IC50 for human LL24 cells to IC50 for human A549 cells
NCI-H1299 [10] = assay: Cytostatic activity against human NCI-H1299 cells assessed as inhibition of colony formation after 24 hrs measured after 10 days by crystal violet staining based method; type: functional, cell-based
A549 [11] = assay: Cell cycle arrest in human A549 cells assessed as accumulation at G0/G1 phase at 75 uM after 24 hrs by propidium iodide staining based flow cytometry (reference value: 33.4%); type: functional
NCI-H1299 [12] = assay: Cell cycle arrest in human NCI-H1299 cells assessed as accumulation at G0/G1 phase at 100 uM after 24 hrs by propidium iodide staining based flow cytometry (reference value: 39%); type: functional
NCI-H1299 [13] = assay: Cell cycle arrest in human NCI-H1299 cells assessed as accumulation at S phase at 50 uM after 24 hrs by propidium iodide staining based flow cytometry (reference value: 7.8%); type: functional
NCI-H1299 [14] = assay: Cell cycle arrest in human NCI-H1299 cells assessed as accumulation at S phase at 100 uM after 24 hrs by propidium iodide staining based flow cytometry (reference value: 7.8%); type: functional
NCI-H1299 [15] = assay: Cell cycle arrest in human NCI-H1299 cells assessed as accumulation at S phase at 75 uM after 24 hrs by propidium iodide staining based flow cytometry (reference value: 7.8%); type: functional
A549 [16] = assay: Cell cycle arrest in human A549 cells assessed as decrease in S phase at 50 to 100 uM after 24 hrs by propidium iodide staining based flow cytometry; type: functional
NCI-H1299 [17] = assay: Cell cycle arrest in human NCI-H1299 cells assessed as accumulation at G0/G1 phase after 24 hrs by propidium iodide staining based flow cytometry; type: functional
A549 [18] = assay: Cell cycle arrest in human A549 cells assessed as accumulation at G0/G1 phase after 24 hrs by propidium iodide staining based flow cytometry; type: functional
NCI-H1299 [19] = assay: Cell cycle arrest in human NCI-H1299 cells assessed as accumulation at G0/G1 phase at 75 uM after 24 hrs by propidium iodide staining based flow cytometry (reference value: 39%); type: functional
A549 [20] = assay: Cytostatic activity against human A549 cells assessed as inhibition of colony formation after 24 hrs measured after 10 days by crystal violet staining based method; type: functional, cell-based
NCI-H1299 [21] = assay: Cell cycle arrest in human NCI-H1299 cells assessed as accumulation at G0/G1 phase at 50 uM after 24 hrs by propidium iodide staining based flow cytometry (reference value: 39%); type: functional
A549 [22] = assay: Cell cycle arrest in human A549 cells assessed as decrease in G2/M phase at 50 to 100 uM after 24 hrs by propidium iodide staining based flow cytometry; type: functional
A549 [23] = assay: Cell cycle arrest in human A549 cells assessed as accumulation at G0/G1 phase at 50 uM after 24 hrs by propidium iodide staining based flow cytometry (reference value: 33.4%); type: functional
A549 [24] = assay: Cell cycle arrest in human A549 cells assessed as accumulation at G0/G1 phase at 100 uM after 24 hrs by propidium iodide staining based flow cytometry (reference value: 33.4%); type: functional
[25] = Selectivity index, ratio of IC50 for HUVEC to IC50 for human NCI-H460 cells; type: toxicity; settings: HUVEC versus NCI-H460 cells, read-out: Ratio IC50
[26] = Selectivity index, ratio of IC50 for human LL24 cells to IC50 for human NCI-H460 cells

Structure (SMILES) | selectivity ratio [1] | IC50 [2] [µM] | IC50 (NCI-H1299 [3]) [µM] | Ratio IC50 [4] | IC50 (HUVEC) [µM] | IC50 (A549 [5]) [µM] | IC50 (NCI-H460) [µM] | IC50 (NCI-H292) [µM] | selectivity ratio [8] | Ratio IC50 [9] | other results
CN(Cc1ccccc1)Cc1ccc2c(c1)OCO2.Cl | > 2.19 | > 200 | 91.2 | >2.19 | > 200 | > 200 | > 200 | > 200 |  |  | 
COc1ccc(CNCc2ccc3c(c2)OCO3)cc1O |  | > 200 | > 200 |  | > 200 | > 200 | > 200 | > 200 |  |  | 
Cl.c1ccc(CNCc2ccc3c(c2)OCO3)cc1 | > 2.98 | > 200 | 67.2 | >2.98 | > 200 | > 200 | > 200 | > 200 |  |  | 
COc1ccc(CNCc2ccc3c(c2)OCO3)cc1.Cl | > 2.71 | > 200 | 73.7 | >2.71 | > 200 | 124 | > 200 | 153 | > 1.61 | >1.61 | Ratio IC50 [6]: >1.31; Ratio IC50 [7]: >1.31
COc1cc(CNCc2ccc3c(c2)OCO3)cc(OC)c1OC.Cl | > 1.88 | > 200 | 107 | >1.88 | > 200 | > 200 | > 200 | > 200 |  |  | 
COc1cc(CN(C)Cc2ccc3c(c2)OCO3)cc(OC)c1OC |  | > 200 | > 200 |  | > 200 | > 200 | > 200 | > 200 |  |  | 
COc1ccc(CN(C)Cc2ccc3c(c2)OCO3)cc1.Cl | > 2.62 | > 200 | 76.4 | >2.62 | > 200 | > 200 | > 200 | > 200 |  |  | 
COc1ccc(CNCc2ccc3c(c2)OCO3)cc1OC.Cl | > 2.17 | > 200 | 92.3 | >2.17 | > 200 | 118 | > 200 | > 200 | > 1.69 | >1.69 | 
Cl.Oc1ccc(CNCc2ccc3c(c2)OCO3)cc1O |  | > 200 | > 200 |  | > 200 | 112 | > 200 | > 200 | > 1.78 | >1.78 | inhibition (NCI-H1299 [10]): Dose-dependent effect; Activity (A549 [11]): 49.6%; Activity (NCI-H1299 [12]): 55.8%; Activity (NCI-H1299 [13]): 26.8%; Activity (NCI-H1299 [14]): 17.7%; Activity (NCI-H1299 [15]): 20.4%; Activity (A549 [16]): Active; Activity (NCI-H1299 [17]): Dose-dependent effect; Activity (A549 [18]): Dose-dependent effect; Activity (NCI-H1299 [19]): 65%; inhibition (A549 [20]): Dose-dependent effect; Activity (NCI-H1299 [21]): 53.5%; Activity (A549 [22]): Active; Activity (A549 [23]): 45.9%; Activity (A549 [24]): 54.3%
COc1ccc(CN(C)Cc2ccc3c(c2)OCO3)cc1OC |  | > 200 | > 200 |  | > 200 | > 200 | > 200 | > 200 |  |  | 
COc1ccc2c(c[n+](C)c3c4cc5c(cc4ccc23)OCO5)c1OC [CHELERYTHRINE] | 1.15 | 3.73 | 4.28 | 0.87 | 4.93 | 7.73 | 5.14 | 4.96 | 0.64 | 0.48 | Ratio IC50 [6]: 0.75; Ratio IC50 [7]: 0.99; selectivity ratio [25]: 0.96; Ratio IC50 [26]: 0.73
